Consider ten compounds from patent publication US4375513A, “Biologically pure culture of Actinoplanes missouriensis” (Eli Lilly and Company, priority 1981, dated 1983).

The subject of assay [1] is Actinoplanes Strain ATCC 31680. In words: antibiotic sensitivity of Actinoplanes strain ATCC 31680. The assay is classed as cell-based, Actinoplanes missouriensis. Here is the method: (§1) The methods used for the taxonomic studies of strains ATCC 31680, ATCC 31682, and ATCC 31683 are well known to those skilled in the art and in large part are methods recommended for the International Streptomyces Project (ISP), described by Shirling and Gottlieb, 1966, Intern. J. of Systematic Bacteriol. 16(3):313-340. Enzyme assays were carried out according to the methods of Blazevic and Ederer, 1975, Principles of Biochemical Tests in Diagnostic Microbiology, John Wiley and Sons. Inc., New York, and color names, abbreviations, and numbers were assigned using the ISCC-NBS method of Kelly and Judd, 1976, The ISCC-NBS Centroid Color Charts Standard Sample No. 2106, U.S. Dept. of Commerce, National Bureau of Standards, Washington D.C. Lysozyme resistance and the decomposition of casein, esculin, hypoxanthine, tyrosine, and xanthine were measured using the procedure of Berg, 1973, Appl. Microbiol. 25:665-681. Carbon utilization studies were also completed and are stored as follows: […]

Assay [2] concerns Actinoplanes Strain ATCC 31683. In words: antibiotic sensitivity of Actinoplanes strain ATCC 31683. Type of assay: cell-based, Actinoplanes missouriensis. Here is the method:
as §1

Assay [3] deals with Actinoplanes Strain ATCC 31682. The assay is described as follows: antibiotic sensitivity of Actinoplanes strain ATCC 31682. Type of assay: cell-based, Actinoplanes missouriensis. Here is the method:
as §1

A short description of assay [4]: bioautography of aglycone formation during hydrolysis. As to conditions: during hydrolysis of A-4696 complex and individual factors. Type of assay: cell-based. The source says:
An additional factor, designated as E1, can also be isolated from the antibiotic A-4696 complex and may represent a degradation product. The chemical, physical, and biological properties of the factors indicate that they are new antibiotics and, except possibly for factor E1, that they are composed of the same peptide core (aglycone) and amino sugar, and varying amounts of glucose, mannose, and rhamnose. […] It is possible that the site of antimicrobial activity of the A-4696 complex and individual factors resides in the peptide pseudo-aglycone, with the factors being substantially differentiated by differences in their neutral sugar composition. The attached sugars may function chiefly to modulate solubility and other important pharmacodynamic parameters.

Counter-ions that a name gives are not always drawn.

Regarding `CC(=O)OCC1=C(C(=O)O)N2C(=O)[C@@H](NC(=O)Cc3cccs3)[C@H]2SC1` [Cephalothin (sodium)], the Antibiotic sensitivity result in assay [1] (30 μg.), in assay [2] (30 μg.) and in assay [3] (30 μg.) was “Sensitive” in each case.
As for `O=C(N[C@H](CO)[C@H](O)c1ccc([N+](=O)[O-])cc1)C(Cl)Cl` [Chloromycetin], the Antibiotic sensitivity result in assay [1] (30 μg.), in assay [2] (30 μg.) and in assay [3] (30 μg.) was “Sensitive” each time.
Regarding `CCC(=O)O[C@H]1[C@H](O[C@@H]2[C@@H](C)[C@H](O[C@H]3C[C@@](C)(OC)[C@@H](O)[C@H](C)O3)[C@@H](C)C(=O)O[C@H](CC)[C@@](C)(O)[C@H](O)[C@@H](C)C(=O)[C@H](C)C[C@@]2(C)O)O[C@H](C)C[C@@H]1N(C)C` [Erythromycin (estolate)], the Antibiotic sensitivity result in assay [1] (15 μg.), in assay [2] (15 μg.) and in assay [3] (15 μg.) was “Sensitive” each time.
Regarding `CO[C@@H]1[C@@H](OC(N)=O)[C@@H](O)[C@H](Oc2ccc3c(O)c(NC(=O)c4ccc(O)c(CC=C(C)C)c4)c(=O)oc3c2C)OC1(C)C` [Novobiocin], the Antibiotic sensitivity entry in assay [1] (30 μg.), in assay [2] (30 μg.) and in assay [3] (30 μg.) was “Sensitive” in each case.
As for `CC1(C)S[C@@H]2[C@H](NC(=O)Cc3ccccc3)C(=O)N2[C@H]1C(=O)O` [Penicillin (G)], the Antibiotic sensitivity result in assay [1] (10 units), in assay [2] (10 units) and in assay [3] (10 units) was “Sensitive” throughout.
On to `CO[C@H]1/C=C/O[C@@]2(C)Oc3c(C)c(O)c4c(O)c(c(/C=N/N5CCN(C)CC5)c(O)c4c3C2=O)NC(=O)/C(C)=C\C=C\[C@H](C)[C@H](O)[C@@H](C)[C@@H](O)[C@@H](C)[C@H](OC(C)=O)[C@@H]1C` [Rifampin], for which the Antibiotic sensitivity result in assay [1] (5 μg.), in assay [2] (5 μg.) and in assay [3] (5 μg.) was “Sensitive” in each case.
`[H]/N=C(/N)N[C@H]1[C@H](O)[C@@H](O)[C@H](O[C@@H]2O[C@@H](C)[C@](O)(C=O)[C@H]2O[C@@H]2O[C@@H](CO)[C@H](O)[C@@H](O)[C@@H]2NC)[C@@H](N/C(N)=N\[H])[C@@H]1O` [Streptomycin]: the Antibiotic sensitivity result in assay [1] (10 μg.), in assay [2] (10 μg.) and in assay [3] (10 μg.) was “Sensitive” in each case.
With `CN(C)C1C(=O)C(C(N)=O)=C(O)C2(O)C(=O)C3=C(O)c4c(O)cccc4C(C)(O)C3CC12` (stereo not shown) [Tetracycline], the Antibiotic sensitivity result in assay [1] (30 μg.), in assay [2] (30 μg.) and in assay [3] (30 μg.) was “Sensitive” each time.
For `CN[C@H](CC(C)C)C(=O)N[C@H]1C(=O)N[C@@H](CC(N)=O)C(=O)N[C@H]2C(=O)N[C@H]3C(=O)N[C@H](C(=O)N[C@H](C(=O)O)c4cc(O)cc(O)c4-c4cc3ccc4O)[C@H](O)c3ccc(c(Cl)c3)Oc3cc2cc(c3O[C@@H]2O[C@H](CO)[C@@H](O)[C@H](O)[C@H]2O[C@H]2C[C@](C)(N)[C@H](O)[C@H](C)O2)Oc2ccc(cc2Cl)[C@H]1O` [Vancomycin HCl], the Antibiotic sensitivity entry in assay [1] (30 μg.), in assay [2] (30 μg.) and in assay [3] (30 μg.) was “Sensitive” throughout.
Turning to `COC(=O)C1NC(=O)C2NC(=O)C(NC(=O)C3NC(=O)C4NC(=O)C(Cc5ccc(cc5)Oc5cc3cc(c5O)Oc3ccc(cc3Cl)C2OC2CC(N)C(O)C(C)O2)NC(=O)C(N)c2ccc(O)c(c2)Oc2cc4cc(O)c2C)c2ccc(O)c(c2)-c2c(O)cc(O)cc21` (stereo not shown) [pseudo-aglycone], the “antimicrobial activity (bioautography)” value in assay [4] is listed as “antimicrobially active”.
